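Protocol summary: plate cells (96-well), add compound at 5 concentrations, incubate 48 h, interpolate endpoints linearly. GI50 = concentration required for 50% inhibition of growth.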 Activity calls are given as the source filed them. No stated cut-off is given here; in the data, active = GI50 up to about 1.1 µM and inactive = higher.
Key:
Assay in all cases: NCI-60 cell line screen, 48 h
[1] = system: DU-145
[2] = system: SK-MEL-5
[3] = system: SW-620
[4] = system: SF-268
[5] = system: NCI-H522
[6] = system: LOX IMVI
[7] = system: KM12
[8] = system: UACC-257
[9] = system: CCRF-CEM
[10] = system: ACHN
[11] = system: Malme-3M
[12] = system: A498
[13] = system: SF-295
[14] = system: K562
[15] = system: HCT-116
[16] = system: RPMI-8226
[17] = system: A549
[18] = system: HCT-15
[19] = system: OVCAR-4
[20] = system: U-251

SMILES | GI50 [1] | GI50 [2] | GI50 [3] | GI50 [4] | GI50 [5] | GI50 [6] | GI50 [7] | GI50 [8] | GI50 [9] | GI50 [10] | GI50 [11] | GI50 [12] | GI50 [13] | GI50 [14] | GI50 [15] | GI50 [16] | GI50 [17] | GI50 [18] [µM] | GI50 [19] | GI50 [20]
CCN1CCN=c2c3cc(OC)ccc3n3cnc4ccc1c2c43 | 0.483 µM (active) | 0.27 µM (active) | 0.824 µM (active) | 0.427 µM (active) | 0.00865 µM (active) | 0.154 µM (active) | 0.395 µM (active) | 0.553 µM (active) | 0.102 µM (active) | 0.131 µM (active) | 0.267 µM (active) | 0.225 µM (active) | 0.26 µM (active) | 0.0555 µM (active) | 0.0565 µM (active) | 0.171 µM (active) | 0.192 µM (active) | 0.177 | 0.371 µM (active) | 0.192 µM (active)
COC(=O)c1ccc2c(c1)S/C(=C/c1ccc3ccc4cccc5ccc1c3c45)S2 | > 100 µM (inactive) | > 100 µM (inactive) | 27.6 µM (inactive) | 32.1 µM (inactive) | 21 µM (inactive) | > 100 µM (inactive) | 24.4 µM (inactive) | > 100 µM (inactive) | 34.5 µM (inactive) | > 100 µM (inactive) | 32.7 µM (inactive) | 31.6 µM (inactive) | 40.8 µM (inactive) | 34.3 µM (inactive) | 95.9 µM (inactive) | 38.3 µM (inactive) | 42 µM (inactive) | 28.1 | 41.4 µM (inactive) | 48.8 µM (inactive)
CCOC(=O)/C=C/C1=C(Br)[C@@]2(C)CC[C@@H]3c4ccc(O)cc4CC[C@H]3[C@@H]2C1 | 6.87 µM (inactive) | 13.6 µM (inactive) | 13.7 µM (inactive) | 19 µM (inactive) | 4.02 µM (inactive) | 7.08 µM (inactive) | 16.2 µM (inactive) | 13.9 µM (inactive) | 7.83 µM (inactive) | 15.7 µM (inactive) | 12 µM (inactive) | 18.1 µM (inactive) | 15.8 µM (inactive) | 9.98 µM (inactive) | 13.7 µM (inactive) | 2.17 µM (inactive) | 16.9 µM (inactive) | 12.1 | 14.5 µM (inactive) | 16.6 µM (inactive)
CCOC(=O)N1CCN(Cc2cc(=O)n3ccc(C)cc3n2)CC1 | > 100 µM (inactive) | > 100 µM (inactive) | > 100 µM (inactive) | > 100 µM (inactive) | > 100 µM (inactive) | > 100 µM (inactive) | > 100 µM (inactive) | > 100 µM (inactive) | > 100 µM (inactive) | > 100 µM (inactive) | > 100 µM (inactive) | > 100 µM (inactive) | > 100 µM (inactive) | > 100 µM (inactive) | > 100 µM (inactive) | > 100 µM (inactive) | > 100 µM (inactive) | > 100 | > 100 µM (inactive) | > 100 µM (inactive)
COc1ccc(/C=C/NC=O)cc1 | > 100 µM (inactive) | > 100 µM (inactive) | > 100 µM (inactive) | > 100 µM (inactive) | > 100 µM (inactive) | > 100 µM (inactive) | > 100 µM (inactive) | > 100 µM (inactive) | > 100 µM (inactive) | > 100 µM (inactive) | > 100 µM (inactive) | > 100 µM (inactive) | > 100 µM (inactive) | > 100 µM (inactive) | > 100 µM (inactive) | > 100 µM (inactive) | > 100 µM (inactive) | > 100 | > 100 µM (inactive) | > 100 µM (inactive)
COc1ccc(OC)c2c1C=CC(Br)=CC2 | 0.975 µM (active) | 0.216 µM (active) | 0.234 µM (active) | 0.313 µM (active) | 0.223 µM (active) | 0.158 µM (active) | 0.309 µM (active) | 0.255 µM (active) | 0.39 µM (active) | 0.312 µM (active) | 0.145 µM (active) | 0.324 µM (active) | 0.16 µM (active) | 0.173 µM (active) | 0.232 µM (active) | 0.162 µM (active) | 0.303 µM (active) | 0.201 | 0.4 µM (active) | 0.43 µM (active)
O=C(O)c1cccc(/N=N/c2c(S(=O)(=O)O)ccc3c2C(=O)c2ccccc2C3=O)c1O | > 100 µM (inactive) | > 100 µM (inactive) | > 100 µM (inactive) | > 100 µM (inactive) | > 100 µM (inactive) | > 100 µM (inactive) | > 100 µM (inactive) | > 100 µM (inactive) | > 100 µM (inactive) | > 100 µM (inactive) | 54.6 µM (inactive) | > 100 µM (inactive) | > 100 µM (inactive) | > 100 µM (inactive) | > 100 µM (inactive) | > 100 µM (inactive) | > 100 µM (inactive) | > 100 | > 100 µM (inactive) | > 100 µM (inactive)
CCN(CC)CCOc1ccc(/C=C(\C#N)c2ccc(OCCN(CC)CC)cc2)cc1 | 65.6 µM (inactive) | 4.48 µM (inactive) | 15.3 µM (inactive) | 19.1 µM (inactive) | 11.3 µM (inactive) | 12.6 µM (inactive) | 10.7 µM (inactive) | 16.9 µM (inactive) | 3.44 µM (inactive) | 27.3 µM (inactive) | 14.5 µM (inactive) | 16.9 µM (inactive) | 13.4 µM (inactive) | 3.37 µM (inactive) | 5.87 µM (inactive) | 13 µM (inactive) | 19.1 µM (inactive) | 14.5 | 37.3 µM (inactive) | 13.5 µM (inactive)
CCOC(=O)CSc1nc(N)c2c(-c3ccccc3)c3c(nc2n1)CCCC3 | > 100 µM (inactive) | > 100 µM (inactive) | > 100 µM (inactive) | > 100 µM (inactive) | > 100 µM (inactive) | > 100 µM (inactive) | > 100 µM (inactive) | > 100 µM (inactive) | > 100 µM (inactive) | > 100 µM (inactive) | > 100 µM (inactive) | > 100 µM (inactive) | > 100 µM (inactive) | > 100 µM (inactive) | > 100 µM (inactive) | > 100 µM (inactive) | > 100 µM (inactive) | > 100 | > 100 µM (inactive) | > 100 µM (inactive)
CC(=O)O[C@H]1CCC2[C@@H]3CC[C@]4(C)CC(=O)C=C[C@]4(C)C3CC[C@@]21C (stereo not given in full) | > 100 µM (inactive) | 14.8 µM (inactive) | 18.3 µM (inactive) | 21.2 µM (inactive) | 24.6 µM (inactive) | 16.9 µM (inactive) | 20.6 µM (inactive) | 20.6 µM (inactive) | 20.1 µM (inactive) | 49 µM (inactive) | 19.4 µM (inactive) | 44.7 µM (inactive) | 53.3 µM (inactive) | 20.2 µM (inactive) | 16.8 µM (inactive) | 23 µM (inactive) | 18.3 µM (inactive) | 18.7 | 16.9 µM (inactive) | 17.7 µM (inactive)
O=c1c2ccc(Cl)cc2oc2c(CNc3ccc(S(=O)(=O)Nc4nccs4)cc3)cccc12 | > 100 µM (inactive) | > 100 µM (inactive) | > 100 µM (inactive) | > 100 µM (inactive) | > 100 µM (inactive) | > 100 µM (inactive) | > 100 µM (inactive) | > 100 µM (inactive) | 91.6 µM (inactive) | > 100 µM (inactive) | > 100 µM (inactive) | > 100 µM (inactive) | > 100 µM (inactive) | > 100 µM (inactive) | > 100 µM (inactive) | > 100 µM (inactive) | > 100 µM (inactive) | > 100 | > 100 µM (inactive) | > 100 µM (inactive)
C[C@H](CCC(=O)NCCS(=O)(=O)O)[C@H]1CC[C@H]2[C@@H]3[C@H](O)C[C@@H]4C[C@H](O)CC[C@]4(C)[C@H]3CC[C@]12C | > 100 µM (inactive) | > 100 µM (inactive) | > 100 µM (inactive) | > 100 µM (inactive) | > 100 µM (inactive) | > 100 µM (inactive) | > 100 µM (inactive) | > 100 µM (inactive) | > 100 µM (inactive) | > 100 µM (inactive) | > 100 µM (inactive) | > 100 µM (inactive) | > 100 µM (inactive) | > 100 µM (inactive) | > 100 µM (inactive) | > 100 µM (inactive) | > 100 µM (inactive) | > 100 | > 100 µM (inactive) | > 100 µM (inactive)
Cc1cn(C2CC(O)C(COP(=O)(O)OC3CC(n4c[n+]([BH2-]C#N)c5c(=O)[nH]c(N)nc54)OC3CO)O2)c(=O)[nH]c1=O (stereo not given) | > 100 µM (inactive) | > 100 µM (inactive) | > 100 µM (inactive) | > 100 µM (inactive) | > 100 µM (inactive) | > 100 µM (inactive) | > 100 µM (inactive) | > 100 µM (inactive) | > 100 µM (inactive) | > 100 µM (inactive) | > 100 µM (inactive) | > 100 µM (inactive) | > 100 µM (inactive) | > 100 µM (inactive) | > 100 µM (inactive) | > 100 µM (inactive) | > 100 µM (inactive) | > 100 | > 100 µM (inactive) | > 100 µM (inactive)
